Our source for the IC50 values is patent US20220235065A1 (Epizyme, Inc., priority 2016, published 2022).

Where a name gives a salt, the structure may show the parent alone.

The target in one assay is T1, EHMT1 (Homo sapiens, UniProt Q9H9B1).
T1 sequence (Q9H9B1 1-1298): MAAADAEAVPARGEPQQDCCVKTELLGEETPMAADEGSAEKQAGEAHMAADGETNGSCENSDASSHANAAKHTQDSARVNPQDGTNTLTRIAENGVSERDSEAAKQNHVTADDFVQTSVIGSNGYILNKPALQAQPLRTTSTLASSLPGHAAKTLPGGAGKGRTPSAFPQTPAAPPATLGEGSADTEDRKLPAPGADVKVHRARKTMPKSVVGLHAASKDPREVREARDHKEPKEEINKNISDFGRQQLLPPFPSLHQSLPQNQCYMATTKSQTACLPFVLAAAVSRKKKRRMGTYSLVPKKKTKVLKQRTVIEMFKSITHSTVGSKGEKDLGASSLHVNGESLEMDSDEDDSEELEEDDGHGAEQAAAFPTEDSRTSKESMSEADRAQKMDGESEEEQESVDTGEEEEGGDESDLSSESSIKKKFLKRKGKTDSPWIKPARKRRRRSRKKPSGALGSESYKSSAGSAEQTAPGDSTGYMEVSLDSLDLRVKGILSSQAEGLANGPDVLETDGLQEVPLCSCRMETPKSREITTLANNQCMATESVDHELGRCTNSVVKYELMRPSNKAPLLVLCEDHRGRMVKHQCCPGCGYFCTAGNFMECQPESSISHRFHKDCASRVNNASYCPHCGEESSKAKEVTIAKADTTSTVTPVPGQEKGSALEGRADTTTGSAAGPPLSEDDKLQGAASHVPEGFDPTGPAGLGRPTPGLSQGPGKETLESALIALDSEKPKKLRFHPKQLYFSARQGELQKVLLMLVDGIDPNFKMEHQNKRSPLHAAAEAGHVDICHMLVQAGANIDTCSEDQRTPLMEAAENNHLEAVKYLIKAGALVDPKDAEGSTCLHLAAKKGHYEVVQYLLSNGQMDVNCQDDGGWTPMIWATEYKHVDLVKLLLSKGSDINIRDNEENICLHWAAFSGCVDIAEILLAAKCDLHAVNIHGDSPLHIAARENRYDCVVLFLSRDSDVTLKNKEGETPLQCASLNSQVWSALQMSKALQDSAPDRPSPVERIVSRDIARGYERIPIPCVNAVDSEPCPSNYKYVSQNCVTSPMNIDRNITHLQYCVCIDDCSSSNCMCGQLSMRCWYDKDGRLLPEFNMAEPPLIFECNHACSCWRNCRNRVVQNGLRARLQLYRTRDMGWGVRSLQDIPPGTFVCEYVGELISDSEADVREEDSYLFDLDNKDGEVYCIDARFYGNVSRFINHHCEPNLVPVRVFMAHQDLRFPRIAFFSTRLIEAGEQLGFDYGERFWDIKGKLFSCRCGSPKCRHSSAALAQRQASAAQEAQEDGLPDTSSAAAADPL
The experiment in a line: EHMT1 PEP (EHMT1 peptide enzyme assay). The format is biochemical. The conditions noted are these: peptide substrate enzyme assay.

Assay [1] has as its system H3K9me2 in MDA-MB-231 cells. The experiment in a line: MDA-MB-231 H3K9me2 in-cell western assay. Type of assay: cell-based. The following applies: Homo sapiens, read-out: EHMT2 ICW (IC50 μM). The method, boiled down: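 MDA-MB-231 cells (3,000/well) exposed to compound for two consecutive 48 h periods at 37 °C, then fixed and stained for H3K9me2, with DRAQ5 as DNA stain and infrared read at 700/800 nm. Percent inhibition was set between DMSO and UNC0638 control wells. IC50 came from triplicate dose–response fits with a four-parameter model, top 100%, bottom 0%.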

As to `CNc1cc(C)nc(Nc2ccc(OC)c(-n3cc4c(n3)CCN(C)C4)c2)n1` [Compound 2], the IC50 (commonly the midpoint of a concentration-inhibition curve) against EHMT1 is less than 0.1 µM; in assay [1] it was 0.1 to 1 µM.
In the same order, the values of `CNc1cc(C)nc(Nc2ccc(OC)c(-n3cc4c(n3)CN(C)CC4)c2)n1` [Compound 3] are 0.1 to 1 µM and more than 10 µM.
The like results for `CNc1cc(C)nc(Nc2ccc(OC)c(-n3ccc(CN4CCCC4)n3)c2)n1` [Compound 4, trifluoroacetic acid] were, in that order, 1 to 10 µM and 1 to 10 µM.
The like results for `CNc1cc(C)nc(Nc2ccc(OC)c(-n3cc(CN4CCCC4)cn3)c2)n1` [Compound 5, 2-N-[4-methoxy-3-[4-(pyrrolidin-1-ylmethyl)-1H-pyrazol-1-yl]phenyl]-4-N,6-dimethylpyrimidine-2,4-diamine] were, in that order, 0.1 to 1 µM and 1 to 10 µM.
Regarding `CNc1cc(C)nc(Nc2ccc(OC)c(-n3cc4ccncc4n3)c2)n1` [Compound 41], the IC50 is 1 to 10 µM at EHMT1 and more than 10 µM in assay [1].
As for `CNc1cc(C)nc(Nc2ccc(OC)c(-c3ccc4cc[nH]c4n3)c2)n1` [Compound 42], the IC50 (against EHMT1; in assay [1]) was more than 10 µM throughout.
With `CNc1cc(C)nc(Nc2ccc(OC)c(-n3cc4c(n3)CCOC4)c2)n1` [Compound 43], the concentration for half-maximal inhibition (IC50) against EHMT1 was 1 to 10 µM; in assay [1] it was more than 10 µM.
In the same order, the values of `CNc1cc(C)nc(Nc2ccc(OC)c(-c3nc4cnccc4[nH]3)c2)n1` [Compound 47] are 1 to 10 µM and more than 10 µM.
In the same order, the values of `CNc1cc(C)nc(Nc2ccc(OC)c(-c3cc4cnccc4[nH]3)c2)n1` [Compound 48] are less than 0.1 µM and 1 to 10 µM.
The like results for `CCn1cc(NC(=O)c2cc(Nc3nc(C)cc(NC)n3)ccc2OC)cn1` [Compound 49] were, in that order, more than 10 µM and more than 10 µM.
With `CNc1cc(C)nc(Nc2cnc(OC)c(-n3cc4c(n3)CCNC4)c2)n1` [Compound 50], the values for the concentration for half-maximal inhibition (IC50) (at EHMT1; in assay [1]) were 0.1 to 1 µM and more than 10 µM, respectively.
The like results for `CNc1cc(C)nc(Nc2ccc(OC)c(-n3cc4c(n3)CCCN4)c2)n1` [Compound 56, N2-(4-methoxy-3-(4,5,6,7-tetrahydro-2H-pyrazolo[4,3-b]pyridin-2-yl)phenyl)-N4,6-dimethylpyrimidine-2,4-diamine hydrochloride] were, in that order, 1 to 10 µM and more than 10 µM.
The like results for `CNc1cc(C)nc(Nc2cnc(OC)c(-n3cc4c(n3)CCN(C)C4)c2)n1` [Compound 57] were, in that order, 0.1 to 1 µM and 1 to 10 µM.
The like results for `CNc1cc(C)nc(Nc2cnc(OC)c(-c3nc4cnccn4n3)c2)n1` [Compound 60] were, in that order, 1 to 10 µM and 1 to 10 µM.
`CNc1cc(C)nc(Nc2ccc(OC)c(-n3cnc(CN(C)C)n3)c2)n1` [Compound 61]: the concentration for half-maximal inhibition (IC50) was 1 to 10 µM on EHMT1 and more than 10 µM in assay [1].
In the same order, the values of `CNc1cc(C)nc(Nc2cnc(OC)c(-n3cnc(CN(C)C)n3)c2)n1` [Compound 62] are 1 to 10 µM and more than 10 µM.
Regarding `CNc1cc(C)nc(Nc2cc(-n3cc4c(n3)CCN(C)C4)c(OC)cn2)n1` [Compound 65], the IC50 is 1 to 10 µM against EHMT1 and more than 10 µM in assay [1].
As to `CNc1cc(C)nc(Nc2ccc(OC)c(-n3cc(CN(C)C)nn3)c2)n1` [Compound 66], the IC50 on EHMT1 was less than 0.1 µM; in assay [1], 0.1 to 1 µM.
In the same order, the values of `CNc1cc(C)nc(Nc2ccc(OC)c(-n3cnc(CN4CCC4)n3)c2)n1` [Compound 67] are 1 to 10 µM and more than 10 µM.
In the same order, the values of `CNc1cc(C)nc(Nc2ccc(OC)c(-n3cnc(CN4CC(F)C4)n3)c2)n1` [Compound 68] are more than 10 µM and more than 10 µM.
In the same order, the values of `CNc1cc(C)nc(Nc2ccc(OC)c(-n3cc4c(n3)CCN(C3COC3)C4)c2)n1` [Compound 69] are more than 10 µM and more than 10 µM.
On to `CCN1CCc2nn(-c3cc(Nc4nc(C)cc(NC)n4)ccc3OC)cc2C1` [Compound 70], for which the half-maximal inhibitory concentration (IC50) at EHMT1 was in the range of 0.1 to 1 µM; in assay [1], 1 to 10 µM.
The like results for `CNc1cc(C)nc(Nc2ccc(OC)c(-c3nnc(CN(C)C)[nH]3)c2)n1` [Compound 73] were, in that order, 1 to 10 µM and more than 10 µM.
In the same order, the values of `CNc1cc(C)nc(Nc2cnc(OC)c(-n3cc(CN(C)C)cn3)c2)n1` [Compound 74] are less than 0.1 µM and 0.1 to 1 µM.
In the same order, the values of `CNc1cc(C)nc(Nc2ccc(OC)c(-n3ncc4c3CN(C(C)=O)CC4)c2)n1` [Compound 75] are more than 10 µM and more than 10 µM.
As to `CNc1cc(C)nc(Nc2ccc(OC)c(-n3nccc3CNC(C)=O)c2)n1` [Compound 76], the 50% inhibitory concentration (IC50) (against EHMT1; in assay [1]) was more than 10 µM each time.
Consider `CNc1cc(C)nc(Nc2ccc(OC)c(-c3nnc4n3CCN(C(=O)OC(C)(C)C)C4)c2)n1` [Compound 77], for which the IC50 (against EHMT1; in assay [1]) was more than 10 µM each time.
For `CNc1cc(C)nc(Nc2ccc(OC)c(-c3nc4c([nH]3)CNCC4)c2)n1` [Compound 78], the IC50 is 1 to 10 µM on EHMT1 and more than 10 µM in assay [1].
The like results for `CNc1cc(C)nc(Nc2ccc(OC)c(-c3nc4c([nH]3)CN(C)CC4)c2)n1` [Compound 79] were, in that order, 1 to 10 µM and more than 10 µM.
The like results for `CNc1cc(C)nc(Nc2ccc(OC)c(-n3cc(C)c4c3CCN(C)C4)c2)n1` [Compound 81] were, in that order, 1 to 10 µM and 1 to 10 µM.
In the same order, the values of `CNc1cc(C)nc(Nc2ccc(OC)c(-n3cc4c(n3)CCN(C3CC3)C4)c2)n1` [Compound 82] are 0.1 to 1 µM and 1 to 10 µM.
For the compound `COc1ncc(Nc2nc(C)cc(NCC3COC3)n2)cc1-n1cc(CN(C)C)nn1` [Compound 86], the IC50 (against EHMT1; in assay [1]) was more than 10 µM each time.
With `CNC(=O)CCNc1cc(C)nc(Nc2ccc(OC)c(-n3cc4c(n3)CCN(C)C4)c2)n1` [Compound 87], the 50% inhibitory concentration (IC50) against EHMT1 is less than 0.1 µM; in assay [1], 0.1 to 1 µM.
In the same order, the values of `CNC(=O)N1CC(CNc2cc(C)nc(Nc3ccc(OC)c(-n4cc5c(n4)CCN(C)C5)c3)n2)C1` [Compound 88] are 0.1 to 1 µM and more than 10 µM.
The like results for `CNc1cc(C)nc(Nc2ccc(OC)c(-c3cc4cnccn4n3)c2)n1` [Compound 93] were, in that order, 1 to 10 µM and more than 10 µM.
For the compound `CNc1cc(C)nc(Nc2ccc(OC)c(-n3cc(C)c(CNC(C)=O)n3)c2)n1` [Compound 94], the values for the IC50 (at EHMT1; in assay [1]) were 1 to 10 µM and more than 10 µM, respectively.
The like results for `CNc1cc(C)nc(Nc2ccc(OC)c(-n3ccc(CNC(C)=O)n3)c2)n1` [Compound 95] were, in that order, more than 10 µM and more than 10 µM.
As to `CNc1cc(C)nc(Nc2ccc(OC)c(-n3ccc(CN(C)C(C)=O)n3)c2)n1` [Compound 96], the half-maximal inhibitory concentration (IC50) (against EHMT1; in assay [1]) was more than 10 µM throughout.
On to `CNc1cc(C)nc(Nc2ccc(OC)c(-n3cc4c(C)nccc4n3)c2)n1` [Compound 99], for which the half-maximal inhibitory concentration (IC50) (against EHMT1; in assay [1]) was 1 to 10 µM in each case.
Consider `CNc1cc(C)nc(Nc2ccc(OC)c(-n3cc4c(OC)nccc4n3)c2)n1` [Compound 100], for which the IC50 is more than 10 µM against EHMT1 and 1 to 10 µM in assay [1].
In the case of `CNc1cc(C)nc(Nc2ccc(OC)c(-n3cc(C)c(CN(C)C)n3)c2)n1` [Compound 102], the half-maximal inhibitory concentration (IC50) lay in the range of 0.1 to 1 µM on EHMT1 and 1 to 10 µM in assay [1].
The like results for `CNC(=O)c1cn(-c2cc(Nc3nc(C)cc(NC)n3)ccc2OC)nc1C` [Compound 103] were, in that order, more than 10 µM and more than 10 µM.
In the same order, the values of `CNC(=O)c1cnn(-c2cc(Nc3nc(C)cc(NC)n3)ccc2OC)c1` [Compound 104] are 1 to 10 µM and more than 10 µM.
Regarding `CNC(=O)c1c(C)nn(-c2cc(Nc3nc(C)cc(NC)n3)ccc2OC)c1C` [Compound 105], the half-inhibitory concentration (IC50) (against EHMT1; in assay [1]) was more than 10 µM in each case.
